Source: the OPERA property sets (Mansouri et al. 2018)

details: not given

Compound	melting point [°C]	boiling point [°C]	log10 vapour pressure (mmHg)	log10 Henry constant (atm·m³/mol)	ready biodegradability	log10 Koc (L/kg)	log10 biodegradation half-life (days)	log10 Koa
CCCOC(=O)Cn1cc(I)c(=O)c(I)c1	186	–	–	–	–	–	–	–
CCOC(=O)C=C(C)C	–	154	–	–	–	–	–	–
Nc1ccc(Nc2ccccc2)cc1	66	354	-4.92	–	–	–	–	–
CCCCCOC(=O)CCCCC	-47	226	–	–	–	–	–	–
CC1(C)S[C@@H]2[C@H](N3C(=O)C(c4ccccc4)NC3(C)C)C(=O)N2[C@H]1C(=O)O (stereo not given in full)	190	–	–	–	–	–	–	–
O=S(=O)(O)CCNC1CCCCC1	320	–	–	–	–	–	–	–
COCC(=NOCC(=O)OC)c1cc(Oc2ccc(C(F)(F)F)cc2Cl)ccc1[N+](=O)[O-]	58	–	–	–	–	–	–	–
Brc1ccc2oc3ccccc3c2c1	110	–	–	–	–	–	–	–
CCCCCCCl	-94	135	0.972	-1.62	–	–	–	–
CC1(C)CC(=O)CC(C)(C)N1	36	205	–	–	not readily biodegradable	–	–	–
Cc1ccc(Cl)c(Cl)c1Cl	43.5	244	–	–	–	–	–	–
CC(C)ON=O	–	40	–	–	–	–	–	–
OCC(F)(F)C(F)C(F)(F)F (stereo not given)	–	117	–	–	–	–	–	–
CCOC(=O)CCCCl	–	184	–	–	–	–	–	–
C=Cc1ccc(O)cc1	73.5	–	-1.85	–	–	–	–	–
OCc1ccccc1	-15.2	205	-1.03	-6.47	readily biodegradable	1.1	–	–
CCC1(C)CC(=O)NC(=O)C1	126	–	–	–	–	–	–	–
CC1OC(C)OC(C)OC(C)O1 (stereo not given)	–	–	–	–	not readily biodegradable	2.38	–	–
O=c1c(O)c(-c2ccc(O)c(O)c2)oc2cc(O)ccc12	330	–	–	–	–	–	–	–
C#CCCCC	-132	71.3	2.12	–	–	–	–	–
O=C(O)c1ccccc1OP(=O)(O)O	169	–	–	–	–	–	–	–
C=C(C)C(C)Cl (stereo not given)	–	94	–	–	–	–	–	–
C=CC(=O)OC	-76.5	80.2	1.94	–	readily biodegradable	–	–	–
CCOC(=O)CCCCCCCCC(=O)OCC	5	305	-3.29	–	–	–	–	–
Cc1cc(-n2nc3ccc(Cl)cc3n2)c(O)c(C(C)(C)C)c1	–	–	–	–	not readily biodegradable	–	–	–

Compound	melting point [°C]	boiling point [°C]	log10 vapour pressure (mmHg)	log10 Henry constant (atm·m³/mol)	ready biodegradability	log10 Koc (L/kg)	log10 biodegradation half-life (days)	log10 Koa
Cc1ccccc1C(N)=O	147	–	–	–	–	–	–	–
CCCCC(CC)CN1C(=O)C2C(C1=O)C1(C(C)C)C=CC2(C)CC1 (stereo not given)	–	–	–	–	not readily biodegradable	–	–	–
CCOC(=O)CC(SP(=S)(OC)OC)C(=O)OCC (stereo not given)	2.8	–	-5.47	-8.31	not readily biodegradable	2.36	–	–
S=C(S)N1CCNCC1	228	–	–	–	–	–	–	–
C=CC=C(C)C	–	76.5	–	–	–	–	–	–
CN1C(=O)C(=NNC(N)=S)c2ccccc21	245	–	–	–	–	–	–	–
CCC(C)Br (stereo not given)	-112	91.2	1.76	–	–	–	–	–
C[C@H]1CCC[C@H](C)C1=O	–	175	–	–	–	–	–	–
COc1ccc(C)cc1	-32	176	–	–	–	–	–	–
CCOC(=O)CC[C@H](N)C(=O)OCC.Cl	109	–	–	–	–	–	–	–
Fc1c(F)c(F)c(-c2c(F)c(F)c(F)c(F)c2F)c(F)c1F	67.5	206	–	–	–	–	–	–
C1COCO1	-95	78	1.9	-4.61	–	–	–	–
O=C1CCCCO1	-12.5	219	–	–	–	–	–	–
OCCN1CCN(CCCN2c3ccccc3Sc3ccc(Cl)cc32)CC1	97	–	–	–	–	–	–	–
CCOC(=O)c1ccc(O)cc1	117	298	–	–	readily biodegradable	2.21	–	–
N#Cc1cccc(F)c1	-16	182	–	–	–	–	–	–
Cc1cc2nc[nH]c2cc1C	206	–	–	–	–	–	–	–
CCCI	-101	103	1.63	–	–	–	–	–
C=Cc1ccccc1Cl	-63.1	189	-0.0173	–	not readily biodegradable	–	–	–
O=C(O)[C@H]1CCCC[C@H]1C(=O)OC(=O)[C@H]1CCCC[C@H]1C(=O)O	–	–	–	–	not readily biodegradable	–	–	–
O=[N+]([O-])c1ccco1	30	–	–	–	–	–	–	–
CCCCCCC(=O)Cl	-83.8	145	-0.35	–	–	–	–	–
COc1ccc(C[C@H]2c3cc(OC)c(OC)cc3CCN2C)cc1O	176	–	–	–	–	–	–	–
CC[C@@H]1C(=O)OC[C@@H]1Cc1cncn1C	34	–	–	–	–	–	–	–
c1ccc2sccc2c1	32	221	-0.624	–	–	3.48	1.4	–

Compound	melting point [°C]	boiling point [°C]	log10 vapour pressure (mmHg)	log10 Henry constant (atm·m³/mol)	ready biodegradability	log10 Koc (L/kg)	log10 biodegradation half-life (days)	log10 Koa
C=C(CC)C(=O)c1ccc(OCC(=O)O)c(Cl)c1Cl	122	–	–	–	–	–	–	–
OC1CCCCCCCCC1	40.5	–	–	–	–	–	–	–
O=C(O)C(c1ccc(Cl)cc1)c1ccc(Cl)cc1	168	–	–	–	–	–	–	–
CN(C)CCCN(CCCN(C)C)CCCN(C)C	–	–	–	–	not readily biodegradable	–	–	–
C=C(C)C(=O)OCCCCCCCCCCCC	-7	–	–	–	–	–	–	–
CCCCCCCCCCCCCCCC(C)=O	48	320	–	–	–	–	–	–
C=CC/C=C/C	-139	65	2.24	–	–	–	–	–
CC(C)(Cl)CCCl	–	147	–	–	–	–	–	–
CC=Cc1ccccc1O	-6	220	–	–	–	–	–	–
C1CNC1	–	63	2.25	–	–	–	–	–
COc1ccc(-c2ccc(OC)cc2)cc1	175	–	–	–	–	–	–	–
C[Si](C)(Oc1ccccc1)Oc1ccccc1	-23	–	–	–	–	–	–	–
Clc1nnc(Cl)c2ccccc12	–	–	–	–	not readily biodegradable	–	–	–
c1ccc(-c2cnc(-c3ccc(-c4ncc(-c5ccccc5)o4)cc3)o2)cc1	245	–	–	–	–	–	–	–
C[C@@H]1C[C@H](C)CC(C)(C)C1	–	152	–	–	–	–	–	–
Clc1ccc2cc(Cl)c(Cl)c(Cl)c2c1	–	–	–	–	–	–	–	8.35
COc1ccc2c(c1)CCCN2	42.5	284	–	–	–	–	–	–
CCCC(=O)Nc1ccc(OCC(O)CNC(C)C)c(C(C)=O)c1 (stereo not given)	121	–	–	–	–	–	–	–
CCO[Si](Cl)(OCC)OCC	-51	156	–	–	–	–	–	–
CCCCCC=O	-56	131	1.05	-3.67	readily biodegradable	–	–	4.41
C=COCCO	–	142	–	–	–	–	–	–
COC(=O)c1cc(Cl)ccc1[N+](=O)[O-]	48.5	–	–	–	–	–	–	–
C[C@]12CCC(=O)C=C1CC[C@@H]1[C@@H]2CC[C@@]2(C)[C@H]1CC[C@]2(C)O	163	–	–	–	–	–	–	–
CCOC(=O)C1(S(=O)(=O)c2ccc(C)cc2)CC1	75.5	–	–	–	–	–	–	–
COc1ccc2[nH]ccc2c1	57	–	–	–	–	–	–	–

Compound	melting point [°C]	boiling point [°C]	log10 vapour pressure (mmHg)	log10 Henry constant (atm·m³/mol)	ready biodegradability	log10 Koc (L/kg)	log10 biodegradation half-life (days)	log10 Koa
NC(=O)c1cccc(N)c1	116	–	–	–	–	–	–	–
CN1C(=O)CC[C@H]1c1cccnc1	41	–	–	–	–	–	–	–
C[C@]12CC[C@H](O)C[C@@H]1CC[C@@H]1[C@@H]2[C@@H](O)C[C@@]2(C)[C@H]1CC[C@]2(O)C(=O)CO	244	–	–	–	–	–	–	–
ClC1=C(Cl)[C@]2(Cl)[C@@H]3[C@@H]4C[C@@H]([C@H]5O[C@@H]45)[C@@H]3[C@@]1(Cl)C2(Cl)Cl (single isomer, unassigned)	202	330	-5.38	-5.09	not readily biodegradable	4.08	–	8.52
Cc1ccc(Br)cc1Br	-9.7	–	–	–	–	–	–	–
COCCOCCO	–	193	-0.602	–	–	–	–	–
CCOc1ccc(C(=O)OCCN(CC)CC)cc1	173	–	–	–	–	–	–	–
C/C=C(C)/C=C/C=C(C)C	–	188	–	–	–	–	–	–
CC1=CC[C@@H]2C[C@@H](C[C@]3(CC[C@H](C)[C@@H](C)O3)O2)OC(=O)[C@@H]2C=C(C)[C@@H](O)[C@H]3OCC(=CC=C[C@H](C)C1)[C@]32O	214	–	–	–	–	–	–	–
O=C(Cl)c1ccc(Br)cc1	42	246	–	–	–	–	–	–
C/C=C/C(=O)N(CC)c1ccccc1C	–	–	–	–	not readily biodegradable	–	–	–
CCc1ccc(OC)cc1	–	198	–	–	–	–	–	–
CCCCCCCCCC(=O)O	31.9	269	-3.44	–	readily biodegradable	–	–	–
CC(Oc1ccccc1)C(=O)Cl (stereo not given)	–	147	–	–	–	–	–	–
CC(=O)c1cccnc1	13.5	220	–	-7.67	–	–	–	–
CCN(CC)CCO	–	163	0.146	–	not readily biodegradable	–	–	–
CCCCOC(=O)c1ccccc1O	-5.9	271	–	–	–	–	–	–
CCOP(=S)(OCC)Oc1ccc(=O)n(-c2ccccc2)n1	55	–	-7.96	–	–	–	–	–
N#CCCNc1ccccc1	52.5	–	–	–	–	–	–	–
CCCCCCCCCCCCCCCC(=O)NCCO	98.5	–	–	–	–	–	–	–
O=C(O)c1cc([N+](=O)[O-])cc([N+](=O)[O-])c1O	170	–	–	–	–	–	–	–
CCCCCC#CCO	-18	–	–	–	–	–	–	–
C=CCOc1ccc(CC(=O)O)cc1Cl	92.5	–	–	–	–	–	–	–
CC(C)=CCCl	–	109	–	–	–	–	–	–
CC/C(=C\c1ccccc1)[N+](=O)[O-]	90.5	308	–	–	–	–	–	–

same assay, conditions: fish

Compound	log10 biotransformation half-life (days)	log10 BCF
Clc1ccc2c(c1)oc1c(Cl)cccc12	0.58	–
CCCCC(CC)CN1C(=O)C2C(C1=O)C1(C(C)C)C=CC2(C)CC1 (stereo not given)	0.31	2.97
CCOC(=O)CC(SP(=S)(OC)OC)C(=O)OCC (stereo not given)	0.29	1.52
CCCCCCCCCCCCCOC(=O)CCCCC(=O)OCCCCCCCCCCCCC	-0.43	–
ClC1=C(Cl)[C@]2(Cl)[C@@H]3[C@@H]4C[C@@H]([C@H]5O[C@@H]45)[C@@H]3[C@@]1(Cl)C2(Cl)Cl (single isomer, unassigned)	1.65	3.91
CCOP(=S)(OCC)Oc1ccc(=O)n(-c2ccccc2)n1	-0.7	0.67
